{"source": "ChEMBL document CHEMBL3414487", "about": "“Synthesis and biological activity of salinomycin conjugates with floxuridine” (Eur J Med Chem, 2015)", "key": {"[1]": {"test_system": "Staphylococcus aureus", "assay": "Antimicrobial activity against methicillin-resistant Staphylococcus aureus 452/11 after 18 hrs by two-fold serial microdilution method", "format": "functional", "settings": "452/11, 18 h"}, "[2]": {"test_system": "HL-60", "assay": "Selectivity index, ratio of IC50 for mouse BALB/3T3 cells to IC50 for human HL60 cells", "format": "functional"}, "[3]": {"test_system": "HL-60", "assay": "Resistance index, ratio of IC50 for human HL60/Vinc cells to IC50 for human HL60 cells"}, "[4]": {"assay": "Selectivity index, ratio of IC50 for mouse BALB/3T3 cells to IC50 for human LoVo/DX cells", "format": "functional"}, "[5]": {"assay": "Antiproliferative activity against human SW707 cells assessed as growth inhibition after 72 hrs by SRB method", "format": "functional, cell-based"}, "[6]": {"test_system": "Staphylococcus aureus", "assay": "Antimicrobial activity against methicillin-resistant Staphylococcus aureus 456/11 after 18 hrs by two-fold serial microdilution method", "format": "functional", "settings": "456/11, 18 h"}, "[7]": {"test_system": "Staphylococcus epidermidis", "assay": "Antimicrobial activity against methicillin-resistant Staphylococcus epidermidis 489/11 after 18 hrs by two-fold serial microdilution method", "format": "functional", "settings": "489/11, 18 h"}, "[8]": {"test_system": "Staphylococcus epidermidis", "assay": "Antimicrobial activity against methicillin-resistant Staphylococcus epidermidis 459/11 after 18 hrs by two-fold serial microdilution method", "format": "functional", "settings": "459/11, 18 h"}, "[9]": {"test_system": "Staphylococcus aureus", "assay": "Antimicrobial activity against methicillin-resistant Staphylococcus aureus 537/12 after 18 hrs by two-fold serial microdilution method", "format": "functional", "settings": "537/12, 18 h"}, "[10]": {"test_system": "BALB/3T3", "assay": "Antiproliferative activity against mouse BALB/3T3 cells assessed as growth inhibition after 72 hrs by SRB method", "format": "cell-based", "settings": "BALB/3T3, 72 h"}, "[11]": {"test_system": "Staphylococcus aureus", "assay": "Antimicrobial activity against Staphylococcus aureus ATCC 29213 after 18 hrs by two-fold serial microdilution method", "format": "functional", "settings": "ATCC 29213, 18 h"}, "[12]": {"test_system": "Staphylococcus epidermidis", "assay": "Antimicrobial activity against methicillin-resistant Staphylococcus epidermidis 460/11 after 18 hrs by two-fold serial microdilution method", "format": "functional", "settings": "460/11, 18 h"}, "[13]": {"test_system": "Staphylococcus aureus", "assay": "Antimicrobial activity against methicillin-resistant Staphylococcus aureus 586/12 after 18 hrs by two-fold serial microdilution method", "format": "functional", "settings": "586/12, 18 h"}, "[14]": {"assay": "Selectivity index, ratio of IC50 for mouse BALB/3T3 cells to IC50 for human HL60/Vinc cells", "format": "functional"}, "[15]": {"test_system": "LoVo", "assay": "Antiproliferative activity against human LoVo cells assessed as growth inhibition after 72 hrs by SRB method", "format": "functional, cell-based"}, "[16]": {"test_system": "Staphylococcus aureus", "assay": "Antimicrobial activity against methicillin-resistant Staphylococcus aureus 585/12 after 18 hrs by two-fold serial microdilution method", "format": "functional", "settings": "585/12, 18 h"}, "[17]": {"test_system": "Staphylococcus epidermidis", "assay": "Antimicrobial activity against methicillin-resistant Staphylococcus epidermidis 470/11 after 18 hrs by two-fold serial microdilution method", "format": "functional", "settings": "470/11, 18 h"}, "[18]": {"assay": "Antiproliferative activity against human HL60 cells assessed as growth inhibition after 72 hrs by MTT assay", "format": "functional, cell-based", "settings": "HL-60, 72 h"}, "[19]": {"assay": "Antiproliferative activity against human LS180 cells assessed as growth inhibition after 72 hrs by SRB method", "format": "functional, cell-based"}, "[20]": {"test_system": "Staphylococcus aureus", "assay": "Antimicrobial activity against Staphylococcus aureus ATCC 25923 after 18 hrs by two-fold serial microdilution method", "format": "functional", "settings": "ATCC 25923, 18 h"}, "[21]": {"test_system": "Staphylococcus epidermidis", "assay": "Antimicrobial activity against methicillin-resistant Staphylococcus epidermidis 488/11 after 18 hrs by two-fold serial microdilution method", "format": "functional", "settings": "488/11, 18 h"}, "[22]": {"test_system": "Staphylococcus aureus", "assay": "Antimicrobial activity against Staphylococcus aureus ATCC 6538 after 18 hrs by two-fold serial microdilution method", "format": "functional", "settings": "ATCC 6538, 18 h"}, "[23]": {"test_system": "Staphylococcus epidermidis", "assay": "Antimicrobial activity against methicillin-resistant Staphylococcus epidermidis 468/11 after 18 hrs by two-fold serial microdilution method", "format": "functional", "settings": "468/11, 18 h"}, "[24]": {"test_system": "Staphylococcus aureus", "assay": "Antimicrobial activity against methicillin-resistant Staphylococcus aureus 522/12 after 18 hrs by two-fold serial microdilution method", "format": "functional", "settings": "522/12, 18 h"}, "[25]": {"test_system": "Staphylococcus aureus", "assay": "Antimicrobial activity against methicillin-resistant Staphylococcus aureus 572/12 after 18 hrs by two-fold serial microdilution method", "format": "functional", "settings": "572/12, 18 h"}, "[26]": {"test_system": "Staphylococcus aureus", "assay": "Antimicrobial activity against methicillin-resistant Staphylococcus aureus 573/12 after 18 hrs by two-fold serial microdilution method", "format": "functional", "settings": "573/12, 18 h"}, "[27]": {"test_system": "Staphylococcus epidermidis", "assay": "Antimicrobial activity against methicillin-resistant Staphylococcus epidermidis 469/11 after 18 hrs by two-fold serial microdilution method", "format": "functional", "settings": "469/11, 18 h"}, "[28]": {"test_system": "Staphylococcus aureus", "assay": "Antimicrobial activity against methicillin-resistant Staphylococcus aureus 462/11 after 18 hrs by two-fold serial microdilution method", "format": "functional", "settings": "462/11, 18 h"}, "[29]": {"test_system": "Staphylococcus epidermidis", "assay": "Antimicrobial activity against methicillin-resistant Staphylococcus epidermidis 467/11 after 18 hrs by two-fold serial microdilution method", "format": "functional", "settings": "467/11, 18 h"}, "[30]": {"assay": "Antiproliferative activity against human doxorubicin-resistant LoVo/DX cells assessed as growth inhibition after 72 hrs by SRB method", "format": "functional, cell-based"}, "[31]": {"test_system": "Staphylococcus aureus", "assay": "Antimicrobial activity against methicillin-resistant Staphylococcus aureus 514/11 after 18 hrs by two-fold serial microdilution method", "format": "functional", "settings": "514/11, 18 h"}, "[32]": {"test_system": "Staphylococcus epidermidis", "assay": "Antimicrobial activity against methicillin-resistant Staphylococcus epidermidis 461/11 after 18 hrs by two-fold serial microdilution method", "format": "functional", "settings": "461/11, 18 h"}, "[33]": {"test_system": "Staphylococcus epidermidis", "assay": "Antimicrobial activity against Staphylococcus epidermidis ATCC 12228 after 18 hrs by two-fold serial microdilution method", "format": "functional", "settings": "ATCC 12228, 18 h"}, "[34]": {"assay": "Antiproliferative activity against human vincristine-resistant HL60/Vinc cells assessed as growth inhibition after 72 hrs by MTT assay", "format": "functional", "settings": "Homo sapiens, HL60/vinc, 72 h"}, "[35]": {"test_system": "Staphylococcus epidermidis", "assay": "Antimicrobial activity against Staphylococcus epidermidis ATCC 35984 after 18 hrs by two-fold serial microdilution method", "format": "functional", "settings": "ATCC 35984, 18 h"}, "[36]": {"test_system": "Staphylococcus epidermidis", "assay": "Antimicrobial activity against methicillin-resistant Staphylococcus epidermidis 466/11 after 18 hrs by two-fold serial microdilution method", "format": "functional", "settings": "466/11, 18 h"}, "[37]": {"test_system": "HT-29", "assay": "Antiproliferative activity against human HT-29 cells assessed as growth inhibition after 72 hrs by SRB method", "format": "functional, cell-based"}, "[38]": {"test_system": "Staphylococcus aureus", "assay": "Antimicrobial activity against Staphylococcus aureus […] 4163 after 18 hrs by two-fold serial microdilution method", "format": "functional"}}}
{"compound": "[N-]=[N+]=N[C@H]1C[C@H](n2cc(F)c(=O)[nH]c2=O)O[C@@H]1CO", "values": [{"measurement": "MIC", "setting": "[1]", "result": 3.69, "unit": "µM"}, {"measurement": "Selectivity Index", "setting": "[2]", "result": 0.54}, {"measurement": "Ratio IC50", "setting": "[3]", "result": 1.63}, {"measurement": "Selectivity Index", "setting": "[4]", "result": 0.34}, {"measurement": "inhibition (INH)", "setting": "[5]", "result": 41, "unit": "%"}, {"measurement": "MIC", "setting": "[6]", "result": 3.69, "unit": "µM"}, {"measurement": "MIC", "setting": "[7]", "result": 3.69, "unit": "µM"}, {"measurement": "MIC", "setting": "[8]", "result": 0.92, "unit": "µM"}, {"measurement": "MIC", "setting": "[9]", "result": 7.38, "unit": "µM"}, {"measurement": "IC50", "setting": "[10]", "result": 97.3, "unit": "µM"}, {"measurement": "MIC", "setting": "[11]", "result": 7.38, "unit": "µM"}, {"measurement": "MIC", "setting": "[12]", "result": 0.92, "unit": "µM"}, {"measurement": "MIC", "setting": "[13]", "result": 3.69, "unit": "µM"}, {"measurement": "Selectivity Index", "setting": "[14]", "result": 0.33}, {"measurement": "inhibition (INH)", "setting": "[15]", "result": 43, "unit": "%"}, {"measurement": "MIC", "setting": "[16]", "result": 3.69, "unit": "µM"}, {"measurement": "MIC", "setting": "[17]", "result": 0.92, "unit": "µM"}, {"measurement": "IC50", "setting": "[18]", "result": 180, "unit": "µM"}, {"measurement": "inhibition (INH)", "setting": "[19]", "result": 25, "unit": "%"}, {"measurement": "MIC", "setting": "[20]", "result": 3.69, "unit": "µM"}, {"measurement": "MIC", "setting": "[21]", "result": 0.92, "unit": "µM"}, {"measurement": "MIC", "setting": "[22]", "result": 3.69, "unit": "µM"}, {"measurement": "MIC", "setting": "[23]", "result": 0.92, "unit": "µM"}, {"measurement": "MIC", "setting": "[24]", "result": 7.38, "unit": "µM"}, {"measurement": "MIC", "setting": "[25]", "result": 3.69, "unit": "µM"}, {"measurement": "MIC", "setting": "[26]", "result": 7.38, "unit": "µM"}, {"measurement": "MIC", "setting": "[27]", "result": 3.69, "unit": "µM"}, {"measurement": "MIC", "setting": "[28]", "result": 7.38, "unit": "µM"}, {"measurement": "MIC", "setting": "[29]", "result": 0.92, "unit": "µM"}, {"measurement": "IC50", "setting": "[30]", "result": 290, "unit": "µM"}, {"measurement": "MIC", "setting": "[31]", "result": 3.69, "unit": "µM"}, {"measurement": "MIC", "setting": "[32]", "result": 1.85, "unit": "µM"}, {"measurement": "MIC", "setting": "[33]", "result": 1.85, "unit": "µM"}, {"measurement": "IC50", "setting": "[34]", "result": 294, "unit": "µM"}, {"measurement": "MIC", "setting": "[35]", "result": 7.38, "unit": "µM"}, {"measurement": "MIC", "setting": "[36]", "result": 0.46, "unit": "µM"}, {"measurement": "inhibition (INH)", "setting": "[37]", "result": 25, "unit": "%"}, {"measurement": "MIC", "setting": "[38]", "result": 3.69, "unit": "µM"}]}
